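Step 1: Grow cells in 96-well plates. Step 2: Expose to compound for 48 hours at 5 concentrations. Step 3: Interpolate endpoints linearly; if unreached, use highest concentration. Here, GI50 denotes the concentration required for 50% inhibition of growth.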 Activity calls are given as the source filed them. Cut-off read from the data, not from the text of the source: active = GI50 up to about 1.1 µM and inactive = higher.
What was measured:
Experiment in all cases: NCI-60 cell line screen, 48 h
HL-60 = system: HL-60
UO-31 = system: UO-31
SK-MEL-2 = system: SK-MEL-2
SN12C = system: SN12C
KM12 = system: KM12
RXF 393 = system: RXF 393
IGROV-1 = system: IGROV-1
K562 = system: K562
RPMI-8226 = system: RPMI-8226
COLO 205 = system: COLO 205
SW-620 = system: SW-620
DMS-114 = system: DMS-114
M14 = system: M14
HOP-92 = system: HOP-92
KM-20L2 = system: KM-20L2
SF-268 = system: SF-268
MOLT-4 = system: MOLT-4
SF-295 = system: SF-295
LXFL 529 = system: LXFL 529
HT-29 = system: HT-29
SK-OV-3 = system: SK-OV-3
SF-539 = system: SF-539
SNB-19 = system: SNB-19
SK-MEL-28 = system: SK-MEL-28
U-251 = system: U-251
Malme-3M = system: Malme-3M
HCT-116 = system: HCT-116
NCI-H23 = system: NCI-H23
HOP-62 = system: HOP-62
SK-MEL-5 = system: SK-MEL-5
SR = system: SR
CCRF-CEM = system: CCRF-CEM
UACC-257 = system: UACC-257
OVCAR-4 = system: OVCAR-4
A549 = system: A549
OVCAR-3 = system: OVCAR-3
OVCAR-8 = system: OVCAR-8
SNB-75 = system: SNB-75
UACC-62 = system: UACC-62
NCI-H522 = system: NCI-H522
EKVX = system: EKVX
TK-10 = system: TK-10
NCI-H460 = system: NCI-H460
OVCAR-5 = system: OVCAR-5
HCT-15 = system: HCT-15
ACHN = system: ACHN
HOP-18 = system: HOP-18
DMS-273 = system: DMS-273
DLD-1 = system: DLD-1
LOX IMVI = system: LOX IMVI

O=C(NN1C(=O)C(Cl)C1c1ccccc1O)c1ccccc1O (stereo not given)
GI50 (HL-60): 6.11 µM (inactive) | GI50 (UO-31): 21.3 µM (inactive) | GI50 (SK-MEL-2): 19.8 µM (inactive) | GI50 (SN12C): 89.5 µM (inactive) | GI50 (KM12): 7.31 µM (inactive) | GI50 (RXF 393): 63.5 µM (inactive) | GI50 (IGROV-1): 30.6 µM (inactive) | GI50 (K562): 32.4 µM (inactive) | GI50 (RPMI-8226): 12.5 µM (inactive) | GI50 (COLO 205): 21.4 µM (inactive) | GI50 (SW-620): 32.7 µM (inactive) | GI50 (DMS-114): 6.82 µM (inactive) | GI50 (M14): 18.3 µM (inactive) | GI50 (HOP-92): > 100 µM (inactive) | GI50 (KM-20L2): 4.51 µM (inactive) | GI50 (SF-268): 44.1 µM (inactive) | GI50 (MOLT-4): 23.2 µM (inactive) | GI50 (SF-295): 26.8 µM (inactive) | GI50 (LXFL 529): 41.4 µM (inactive) | GI50 (HT-29): 6.61 µM (inactive) | GI50 (SK-OV-3): 16.1 µM (inactive) | GI50 (SF-539): 16.3 µM (inactive) | GI50 (SNB-19): 0.365 µM (active) | GI50 (SK-MEL-28): 22.3 µM (inactive) | GI50 (U-251): 16.2 µM (inactive) | GI50 (Malme-3M): 13.9 µM (inactive) | GI50 (HCT-116): 3.69 µM (inactive) | GI50 (NCI-H23): 42.5 µM (inactive) | GI50 (HOP-62): 29 µM (inactive) | GI50 (SK-MEL-5): 29.4 µM (inactive) | GI50 (SR): 17.8 µM (inactive) | GI50 (CCRF-CEM): 5.12 µM (inactive) | GI50 (UACC-257): 22.2 µM (inactive) | GI50 (OVCAR-4): 22.5 µM (inactive) | GI50 (A549): 17.8 µM (inactive) | GI50 (OVCAR-3): 3.13 µM (inactive) | GI50 (OVCAR-8): 26.4 µM (inactive) | GI50 (SNB-75): 49.9 µM (inactive) | GI50 (UACC-62): 27.9 µM (inactive) | GI50 (NCI-H522): 29 µM (inactive) | GI50 (EKVX): 29.4 µM (inactive) | GI50 (TK-10): 47.5 µM (inactive) | GI50 (NCI-H460): 5.33 µM (inactive)

CCOC(=O)CNC(=O)C(CSC(=O)N(C)O)NC(=O)CCC(N)C(=O)O (stereo not given)
GI50 (OVCAR-5): 436 µM (inactive) | GI50 (HL-60): 659 µM (inactive) | GI50 (SK-MEL-2): 378 µM (inactive) | GI50 (RXF 393): 498 µM (inactive) | GI50 (HCT-15): > 1000 µM | GI50 (RPMI-8226): 908 µM (inactive) | GI50 (COLO 205): 0.735 µM (active) | GI50 (SW-620): > 1000 µM (inactive) | GI50 (DMS-114): 0.968 µM (active) | GI50 (HOP-92): 348 µM (inactive) | GI50 (HT-29): 0.891 µM (active) | GI50 (SK-OV-3): 684 µM (inactive) | GI50 (SK-MEL-28): 927 µM (inactive) | GI50 (ACHN): 653 µM (inactive) | GI50 (HOP-18): 462 µM (inactive) | GI50 (HCT-116): 1.75 µM (inactive) | GI50 (DMS-273): 0.75 µM (active) | GI50 (DLD-1): 0.656 µM (active) | GI50 (SR): 0.644 µM (active) | GI50 (CCRF-CEM): 1.02 µM (active) | GI50 (LOX IMVI): 0.658 µM (active) | GI50 (TK-10): 655 µM (inactive)
